Here are results for three compounds from US20200009248A1, “TARGETING TGR5 TO TREAT DISEASE” (Mayo Foundation for Medical Education and Research, priority 2014, published 2020).

Each structure is given as a SMILES string. “Also recorded” adds a separate entry of the source.

For series [1], the system named is control and cystic cholangiocytes. Kind of series: cAMP production (Bridge-It cAMP assay) in cholangiocytes treated with TGR5 agonists. The series is classed as cell-based, rat, human. Conditions: 25 μM, 30 minutes; for cAMP production: ciliated cystic cholangiocytes (PCK rat, human ADPKD). A general note: cAMP levels reflect the balance of adenylyl cyclase and phosphodiesterase activity.
Description: Production of cAMP was detected using a Bridge-It cAMP designer cAMP assay (Mediomics, St. Lou is, MO) according to manufacturer's protocol. […] Forskolin (10^−6M for 15 min) served as a control.

The test system of series [2] is Gαi and Gαs proteins, TGR5. Conditions: PCK rats in vivo, immunofluorescence. An excerpt:
(§1) Control PCK rats (n=8) received equal doses of DMSO. Drug concentrations were adjusted to the animal weight weekly. After 6 weeks of treatment, rats were sacrificed and body and organ weights assessed. […] Hepatic and renal cystic and fibrotic areas were expressed as a percentage of total hepatic or renal parenchyma, respectively.

Another series concerns ADPKD cholangiocytes. Kind of series: Three-dimensional culture of cystic cholangiocytes, cyst growth. In kind it is cell-based, human. Conditions: ADPKD cholangiocytes with TGR5 depleted by shRNA. An excerpt:
Control and cystic rat cholangiocytes (derived from wild type and PCK rats, respectively), and control and cystic human cholangiocytes (derived from healthy humans and ADPKD patients, respectively) were used. Cells were isolated and maintained as described elsewhere (Masyuk et al., Hepatol 2013, 58:409-421). […] C1 and C2 were synthesized in the Sanford-Burnham Medical Research Institute at >95% purity by HPLC following a procedure outlined elsewhere (Piotrowski et al., ACS Med Chem Lett 2013, 4:63-68; and Evans et al., J Med Chem 2009, 52:7962-7965). PCK and ADPKD cholangiocytes were stably transfected with TGR5 shRNAs or control shRNAs (Santa Cruz Biotechnology, Santa Cruz, Calif.). Rodents were maintained on a standard diet and water ad lib. […]
Cultured cholangiocytes and cystic bile ducts freshly isolated by microdissection from PCK rats were grown in three-dimensional matrices as described elsewhere (Masyuk et al., Am J Pathol 2014, 184:110-121; and Masyuk et al., Am J Pathol 2004, 165:1719-1730) and treated with TLCA and OA (both, […]) daily. […] The circumferential area of each cyst was measured using ImageJ software (National Institutes of Health, Bethesda, Md.) as described elsewhere (Masyuk et al., Am J Pathol 2014, 184:110-121). Data were expressed as percent change at day 3 compared to day 1.

In another series the test system is Gαi and Gαs proteins. Kind of series: Western blot of Gαi and Gαs proteins in control and cystic cholangiocytes with or without OA. In kind it is cell-based. As to the method: Western blotting. Briefly, proteins were separated by 4-15% SDSPAGE, transferred to nitrocellulose membranes (Bio-Rad, Hercules, Calif.), and incubated overnight at 4° C. with antibodies against TGR5 (Santa Cruz Biotechnology), Gas (Abcam, Cambridge, Mass.), and Gαi (Cell Signaling Technology, Danvers, Mass.). Actin antibody was used to assure equal protein loading. Membranes were washed and incubated for 1 hour at room temperature with the corresponding horseradish peroxidase-conjugated (Invitrogen) or IRDYE® 680 or 800 (Odyssey) secondary antibodies. Bands were visualized with the ECL Plus Western Blotting Detection kit (BD Biosciences, San Jose, Calif.) or Odyssey Li-Cor Scanner (Li-Cor, Lincoln, Nebr.).

Series [3] relates to cystic bile ducts from PCK rats. Kind of series: Three-dimensional culture of cystic bile ducts, cyst growth. In kind it is cell-based, rat. Conditions: 25 μm daily, day 3 vs day 1, compared to untreated. As to the method:
Cultured cholangiocytes and cystic bile ducts freshly isolated by microdissection from PCK rats were grown in three-dimensional matrices as described elsewhere (Masyuk et al., Am J Pathol 2014, 184:110-121; and Masyuk et al., Am J Pathol 2004, 165:1719-1730) and treated with TLCA and OA (both, […]) daily. Images were taken at days 1 (i.e., 24 hours after seeding) and 3. The circumferential area of each cyst was measured using ImageJ software (National Institutes of Health, Bethesda, Md.) as described elsewhere (Masyuk et al., Am J Pathol 2014, 184:110-121). Data were expressed as percent change at day 3 compared to day 1.

A further series concerns PCK rats. As to the kind of experiment: Hepato-renal cystogenesis in PCK rats treated with OA for 6 weeks. In kind it is in vivo. The note with it: 25 mg/kg bw intraperitoneally daily; for hepato-renal cystogenesis: 25 mg/kg.
Description: as §1

Where [4] appears, read: ciliated control cholangiocytes (rat, human).
The mark [5] stands for this setting: non-ciliated control and cystic cholangiocytes (rat, human).

With `CCNc1nc2c(c(C(N)=O)n1)CN(C(=O)CCc1ccc(OC(F)(F)F)cc1)CC2` [C1, 2-(ethylamino)-6-(3-(4-(trifluoromethoxy)phenyl)propanoyl)-5,6,7,8-tetrahydropyrido[4,3-d]pyrimidine-4-carbox-amide], the cAMP levels result in series [1] (setting [4]) is reported as “decreased cAMP levels”; in series [1] (setting [5]), “elevated cAMP”. Besides, the cAMP production entry in series [1] is reported as “increasing cAMP production”.

Consider `Cc1onc(-c2ccccc2Cl)c1C(=O)N(C)c1ccc(Cl)cc1` [C2, 3-(2-chlorophenyl)-N-(4-chlorophenyl)-N,5-dimethylisoxazole-4-carboxamide], for which the cAMP levels result in series [1] (setting [4]) is given as “decreased cAMP levels”; in series [1] (setting [5]), “elevated cAMP”. Further, the cAMP production result in series [1] was “increasing cAMP production”.

For `CC1(C)CC[C@]2(C(=O)O)CC[C@]3(C)C(=CC[C@@H]4[C@@]5(C)CC[C@H](O)C(C)(C)[C@@H]5CC[C@]43C)[C@@H]2C1` [OA, oleanolic acid], the “expression of Gα proteins” value in series [2] is reported as “does not affect”. In addition, the “growth of cystic structures in 3-D culture after TGR5 depletion” value in the series on ADPKD cholangiocytes is “abolished the effects”. For the same compound, in the series with Gαi and Gαs proteins, the “expression of Gαi and Gαs proteins” value is listed as “no effects; also recorded: did not affect”. In series [3], the “growth of cystic structures (cyst expansion) in 3-D culture” value is listed as “accelerated cyst expansion”. In the series with PCK rats, the “mortality or toxicity (e.g., hair or weight loss)” value was “no mortality or toxicity” and the tolerability entry is on record as “well tolerated”. Further, in the series on PCK rats (compared to control PCK rats), the “increase of hepatic cystic areas” value was determined as 31%, the “increase of hepatic fibrotic areas” value amounted to 20%, the “increase of kidney weights” value turned out to be 11% and the “increase of liver weights” value is 12%. Besides, in the series with PCK rats (compared to control PCK rats), the “increase of renal cystic areas” value stood at 19% and the “increase of renal fibrotic areas” value is 30%. For the same compound, the hepato-renal cystogenesis entry with PCK rats (listed as Oleanolic Acid) is listed as “Increases”. Further, the hepato-renal cystogenesis result with PCK rats (listed as oleanolic acid) is reported as “increases”. For the same compound, the cAMP levels result in series [1] (setting [4]) is recorded as “decreased cAMP levels”. Also, the cAMP production entry in series [1] is reported as “increasing cAMP production”. The cAMP levels entry in series [1] (setting [5]) was “elevated cAMP”.
